This is an account of results in paper PMC8626637, “Successful Prediction of Human Fetal Exposure to P-Glycoprotein Substrate Drugs Using the Proteomics-Informed Relative Expression Factor Approach and PBPK Modeling and Simulation” (Drug Metabolism and Disposition, 2021).

Series [1] deals with 11 β-hydroxysteroid dehydrogenase-2. On the set-up: method as in Blanford and Murphy, 1977; Murphy et al., 2007. The settings on record: ref Blanford and Murphy, 1977, Murphy et al., 2007; cited from earlier work.
For series [2] the following is noted: ref DrugBank database; cited from earlier work.
Series [3] in a line: Estimation of in vivo transplacental passive diffusion clearance by scaling midazolam CLint,PD,placenta with Papp ratio. Further details: species or system human. The settings on record: at term, scaled from midazolam by Papp ratio.
Series [4] concerns the target T1, P-gp (Homo sapiens, UniProt P08183). In words: in vitro. To be noted: MDCK-MDR1, pH 7.4.
In another series the test system is placental P-gp. In words: m-f PBPK prediction of maternal-fetal pharmacokinetics at gestational week 20 (GW20). Further details: species or system human. The text has this:
GW20 was chosen since this is the earliest gestational age at which all the fetal physiologic parameters (e.g., organ volumes, partition coefficients, blood flows) are available.

Series [5] in a line: Observed or PopPK-model (published) maternal and fetal UV plasma pharmacokinetics in pregnant women. The settings on record: coadministered with RTV.
The target of series [6] is T1, P-gp. The settings on record: for ERP-gp ERTRQ(−) − ERTRQ(+): P-gp-mediated efflux ratio.
The conditions of series [7]: in vivo, at term; ref Zhang and Unadkat, 2017; cited from earlier work.
In a further series the test system is MDCKII or Caco-2 cells. To be noted: determined in MDCKII or Caco-2 cells; ref Zhang and Unadkat, 2017; cited from earlier work.

≈ marks a conversion by molar mass, not a printed value. Where “and” joins values, the source holds several entries; their conditions need not be identical. Equal values may be shown once. Read-outs that look alike come from different tables or passages of the source.

T1 sequence (P08183 whole entry): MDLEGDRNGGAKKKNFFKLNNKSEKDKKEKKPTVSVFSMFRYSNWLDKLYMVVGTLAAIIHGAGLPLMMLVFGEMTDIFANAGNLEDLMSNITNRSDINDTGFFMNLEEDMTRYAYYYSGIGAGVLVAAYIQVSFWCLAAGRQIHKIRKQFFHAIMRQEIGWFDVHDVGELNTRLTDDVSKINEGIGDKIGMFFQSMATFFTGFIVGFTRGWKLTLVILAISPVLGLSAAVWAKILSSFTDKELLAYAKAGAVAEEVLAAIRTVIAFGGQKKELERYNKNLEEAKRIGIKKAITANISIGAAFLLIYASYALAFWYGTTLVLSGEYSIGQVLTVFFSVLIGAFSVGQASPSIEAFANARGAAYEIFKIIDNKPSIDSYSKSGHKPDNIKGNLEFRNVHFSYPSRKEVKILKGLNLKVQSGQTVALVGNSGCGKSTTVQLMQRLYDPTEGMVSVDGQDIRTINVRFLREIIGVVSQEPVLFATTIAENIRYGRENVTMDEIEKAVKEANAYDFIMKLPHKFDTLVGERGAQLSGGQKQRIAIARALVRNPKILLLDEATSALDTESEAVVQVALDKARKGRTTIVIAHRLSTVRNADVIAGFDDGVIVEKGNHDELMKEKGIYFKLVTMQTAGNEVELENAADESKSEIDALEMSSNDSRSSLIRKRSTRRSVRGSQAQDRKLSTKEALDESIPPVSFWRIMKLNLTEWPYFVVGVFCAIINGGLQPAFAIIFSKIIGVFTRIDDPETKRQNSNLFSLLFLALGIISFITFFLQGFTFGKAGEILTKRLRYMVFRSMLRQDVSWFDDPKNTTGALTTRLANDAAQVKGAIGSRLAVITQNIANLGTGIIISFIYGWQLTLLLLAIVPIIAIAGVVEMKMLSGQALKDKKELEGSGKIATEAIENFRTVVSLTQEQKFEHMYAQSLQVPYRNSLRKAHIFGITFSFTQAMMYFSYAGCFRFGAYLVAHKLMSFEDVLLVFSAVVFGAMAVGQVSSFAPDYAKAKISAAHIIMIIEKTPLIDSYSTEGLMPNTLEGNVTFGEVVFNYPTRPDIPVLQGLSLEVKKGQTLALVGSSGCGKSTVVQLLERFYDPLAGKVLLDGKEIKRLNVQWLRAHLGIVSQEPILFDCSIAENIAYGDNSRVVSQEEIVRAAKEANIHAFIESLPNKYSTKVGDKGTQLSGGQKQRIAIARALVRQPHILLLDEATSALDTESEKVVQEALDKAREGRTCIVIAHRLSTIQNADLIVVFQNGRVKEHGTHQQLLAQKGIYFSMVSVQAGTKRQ

As to `C[C@H]1C[C@H]2[C@@H]3CCC4=CC(=O)C=C[C@]4(C)[C@@]3(F)[C@@H](O)C[C@]2(C)[C@@]1(O)C(=O)CO` [BET, betamethasone], in series [1], the “metabolized over 6 hours in vitro in placental microsomes” value is listed as 10%–15%.

For the molecule `C[C@@H]1C[C@H]2[C@@H]3CCC4=CC(=O)C=C[C@]4(C)[C@@]3(F)[C@@H](O)C[C@]2(C)[C@@]1(O)C(=O)CO` [DEX, dexamethasone], the “metabolized over 6 hours in vitro in placental microsomes” value in series [1] was 10%–15%.

Take `CC(C)CN(C[C@@H](O)[C@H](Cc1ccccc1)NC(=O)O[C@H]1CO[C@H]2OCC[C@H]21)S(=O)(=O)c1ccc(N)cc1` [DRV, darunavir]: the solubility (usually the dissolved amount per volume that the medium holds) in series [2] is 16 µM (≈ 8.76 µg/mL).

Take `Cc1cccc(C)c1OCC(=O)N[C@@H](Cc1ccccc1)[C@@H](O)C[C@H](Cc1ccccc1)NC(=O)[C@H](C(C)C)N1CCCNC1=O` [LPV, lopinavir]: the “CLint,PD,placenta” value is 127 L/h in series [3] and 49.5 L/h in the series on placental P-gp (GW20, from term value adjusted for placental surface area). In addition, at P-gp [4], the Papp (as a rule, a coefficient for how fast a substance crosses the barrier) came out at 12.5 ×10⁻⁶ cm/s. Also, in the series with placental P-gp (GW20, adjusted for total placental P-gp abundance), the “CLint,P-gp,placenta” value was 617 L/h. In the series on placental P-gp (GW20 versus GW38), the “CLint,P-gp,placenta at GW20, lower than the corresponding value at GW38” value is given as 40%. In addition, the “fetal Kp,uu at GW20 as percent of that at GW38” value in the series with placental P-gp (m-f PBPK predicted) is on record as 64%. In addition, the “fetal UV plasma AUC0-12 at GW20 as percent of that at GW38” value in the series on placental P-gp (m-f PBPK predicted) was 38%. Further, the “fetal plasma Cmax at GW20 as percent of that at GW38” value in the series with placental P-gp (m-f PBPK predicted) is reported as 41%. Moreover, in series [5], the “observed increase in maternal clearance in pregnancy” value came out at 1.4 fold. The “ERP-gp ERTRQ(−) − ERTRQ(+)” value at P-gp [6] (Mean ± S.D. of 4 experiments) is 83.1 ± 10.1 and 83.1 ± 10.05; at P-gp [6] (individual experiments (Exp no. 1-4)), 94.35 and 88.78 and 73.99 and 75.27. The “ERTRQ(−)” value at P-gp [6] (efflux ratio without tariquidar, individual experiments (Exp no. 1-4, each in triplicate), 2 µM DEX, BET, DRV, 1 µM LPV) is 95.37 and 90.07 and 75.63 and 76.57. Further, the solubility in series [2] is 3 µM (≈ 1.89 µg/mL).

As to `Cc1ncc2n1-c1ccc(Cl)cc1C(c1ccccc1F)=NC2` [MDZ, midazolam], the “CLint,PD,placenta” value in series [7] was 500 L/h. For the same molecule, in the series on MDCKII or Caco-2 cells, the Papp is 49 ×10⁻⁶ cm/s.

`C=C[C@H]1C[N@@]2CC[C@H]1C[C@@H]2[C@@H](O)c1ccnc2ccc(OC)cc12` [QND, Quinidine]: the efflux ratio – broadly, a quotient of directional permeabilities that is used to spot active efflux – at 3 µM on P-gp [4] is 11.1 ± 2.5.
